Measurements from patent US8853424B2 (Japan Science and Technology Agency, priority 2008, dated 2014).
Where two headings read alike, the source gives them in different places.

How the values were obtained:
[1] = system: transglutaminase (TGase); test: Measurement of TG (TGase inhibitory activity, monodansyl cadaverine / N,N-dimethylcasein fluorescence, FDSS 3000); assay type: biochemical
Outline: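 Compound (1 μL of 10 mM stock) added to 0.1 mL reaction: 100 mM HEPES-NaOH pH 7.5, 1 mM CaCl2, 20 μM monodansyl cadaverine, 0.05 mg/mL N,N-dimethylcasein, 5 μg/mL TGase. Rate of fluorescence change at 340 nm measured; DMSO control set to 100; TG50 is the concentration halving activity.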

[2] = system: Truncated N-terminal huntington 150 Q-EGFP-Neuron 2a cells; test: Measurement of x-Fold (polyglutamine aggregation inhibitory activity); assay type: cell-based
Description: In the present invention, the polyglutamine aggregation inhibitory activity (x-Fold) can be measured, for example, by the method described in the Example.
The number of the aggregated cells, and the total number of cells were counted by Array Scan V T1 (manufactured by Cellomics, Pittuburg, USA), and the ratio of the aggregated cells to the total number of cells was determined (x-Fold). […]

[3] = system: SOC (store operated calcium channel); test: Measurement of SOC IC50 (thapsigargin store depletion, calcium re-addition, CHO cells); assay type: cell-based; details: read-out: SOC IC50
Description: The SOC (store operated calcium channel)-suppressive action can be measured by the method described in the Example and using, for example, FDSS 3000.
CHO cell culture medium was replaced with a BSS solution which is an extracellular fluidfree of calcium, the compound of the present invention was added 1 min later, and 1 μM thapsigargin was allowed to act thereon 2 min later to deplete intracellular calcium store. […]

[4] = TGase activity with compound (10 mM, 1 μL in 0.1 ml enzyme reaction solution), DMSO control taken as 100
[5] = TGase inhibitory activity value, Table 1
[6] = polyglutamine aggregation inhibitory activity, Table 1
[7] = ratio of aggregated cells to total number of cells, compound 20 μM, 20 hr, almost 1 without compound, smaller = stronger inhibition
[8] = Cricetulus griseus, CHO, CHO cells, 1 μM thapsigargin, 2 mM calcium chloride
[9] = Cricetulus griseus, CHO, Table 1
[10] = TGase inhibitory activity measurement, unit not given
[11] = polyglutamine aggregation, Truncated N-terminal huntington 150 Q-EGFP-Neuron 2a cells
[12] = CHO cells, 1 μM thapsigargin, 2 mM calcium chloride

| Compound | TGase activity remaining (% of DMSO control = 100) [1, 4] | TGase activity remaining (% of DMSO control = 100) [1, 5] | x-Fold [2, 6] | x-Fold [2, 7] | IC50 [3, 8] [nM] | IC50 [3, 9] [nM] | IC50 [3, 12] [nM] | also measured |
| --- | --- | --- | --- | --- | --- | --- | --- | --- |
| NCCOB(c1ccccc1)c1ccc(COCc2cccc(B(OCCN)c3ccccc3)c2)cc1 [Example 332, (3-(phenylaminoethoxyboryl)benzyl)(4-(phenylaminoethoxyboryl)benzyl)ether] | 21 | 21 | 0.98 | 0.98 | 200 | 200 | – | – |
| NCCOB(c1ccccc1)c1ccccc1 [Example 487, 2-aminoethyl diphenylborinate] | 90 | – | – | 0.64 | – | – | – | IC50 ([3]; Cricetulus griseus, CHO): 3000 nM |
| CNCCOB(c1ccccc1)c1cccc(COCc2cccc(B(OCCNC)c3ccccc3)c2)c1 [Example 469, bis(3,3′-(phenyl-N-methylaminoethoxyboryl)benzyl)ether] | 15 | – | – | 0.94 | – | – | 250 | TGase activity remaining (% of DMSO control = 100) [1, 10]: 15; x-Fold [2, 11]: 0.94 |
| CC(CN)OB(c1ccccc1)c1cccc(COCc2cccc(B(OC(C)CN)c3ccccc3)c2)c1 (stereo not drawn) [Example 465, bis(3,3′-(phenyl-1-methyl-2-aminoethoxyboryl)benzyl)ether] | 18 | – | – | 1.06 | – | – | 200 | TGase activity remaining (% of DMSO control = 100) [1, 10]: 18; x-Fold [2, 11]: 1.06 |
| OB(c1ccccc1)c1ccc(COCc2ccc(B(O)c3ccccc3)cc2)cc1 [Example 137, bis((4,4′-phenylhydroxyboryl)benzyl)ether] | 14 | – | – | 0.99 | – | – | 300 | – |
| NC(=O)CC(N)C(=O)OB(c1ccccc1)c1cccc(COCc2cccc(B(OC(=O)C(N)CC(N)=O)c3ccccc3)c2)c1 (stereo not drawn) [Example 474, bis(3,3′-(phenyl-asparagineboryl)benzyl)ether] | 145 | – | – | 1.04 | – | – | 500 | TGase activity remaining (% of DMSO control = 100) ([1]; TGase inhibitory activity measurement, unit not given, listed as 3031): 145; x-Fold ([2]; polyglutamine aggregation, Truncated N-terminal huntington 150 Q-EGFP-Neuron 2a cells, listed as 3031): 1.04 |
| NCC(N)C(=O)OB(c1ccccc1)c1ccccc1 (stereo not drawn) [Example 272, diphenyl(2,3-diaminopropionate-O,N)borane] | 83 | – | – | 0.09 | 300 | 300 | – | TGase activity remaining (% of DMSO control = 100) ([1]; TGase inhibitory activity value, Table 1, listed as 2043): 83; x-Fold ([2]; polyglutamine aggregation inhibitory activity, Table 1, listed as 2043): 0.09 |
| NC(COB(c1ccccc1)c1ccc(COCc2ccc(B(OCC(N)Cc3ccccc3)c3ccccc3)cc2)cc1)Cc1ccccc1 (stereo not drawn) [Example 479, bis(4,4′-(phenyl-2-benzyl-2-amino-ethoxyboryl)benzyl)ether] | 54 | – | – | 1.00 | – | – | 1500 | TGase activity remaining (% of DMSO control = 100) [1, 10]: 54; x-Fold [2, 11]: 1.00 |
| Cc1ccc(B(O)c2ccc(COCc3ccc(B(O)c4ccc(C)c(Cl)c4)cc3)cc2)cc1Cl [Example 322, bis(4,4′-(3-chloro-4-methylphenylhydroxyboryl)benzyl)ether] | 98 | – | – | 0.32 | – | – | 200 | – |
| Cc1ccc(B(OC(=O)C(N)C(C)O)c2ccc(C)c(Cl)c2)cc1Cl (stereo not drawn) [Example 291, di(3-chloro-4-methylphenyl)(allothreoninate-O,N)borane] | 50 | 50 | 1.02 | 1.02 | 500 | 500 | – | – |
| CCC(N)COB(c1ccc(C)c(Cl)c1)c1ccc(C)c(Cl)c1 (stereo not drawn) [Example 229, di(3-chloro-4-methylphenyl) 2-aminobutylborinate] | 40 | 40 | 1.09 | 1.09 | 500 | 500 | – | – |
| NCCC(N)C(=O)OB(c1ccccc1)c1ccccc1 (stereo not drawn) [Example 263, diphenyl(2,4-diaminolactonate-O,N)borane] | 146 | – | – | 0.89 | 3000 | 3000 | – | TGase activity remaining (% of DMSO control = 100) ([1]; TGase inhibitory activity value, Table 1, listed as 2045): 146; x-Fold ([2]; polyglutamine aggregation inhibitory activity, Table 1, listed as 2045): 0.89 |
| OB(c1ccccc1)c1cccc(B(O)c2ccccc2)c1 [Example 147, 1,3-bis(phenylhydroxyboryl)benzene] | 101 | – | – | 0.87 | – | – | 20000 | – |
| CN(C)CCOB(c1ccccc1)c1ccc(COc2ccc(B(OCCN(C)C)c3ccccc3)cc2)cc1 [Example 428, (4-phenyl-N,N-dimethylaminoethoxyborylphenyl) (4′-phenyl-N,N-dimethylaminoethoxyborylbenzyl)ether] | 53 | – | 0.98 | 0.82 | – | – | 1500 | TGase activity remaining (% of DMSO control = 100) [1, 10]: 53; x-Fold [2, 11]: 0.82 |
| CC(CN)OB(c1ccccc1)c1ccc(COCc2ccc(B(OC(C)CN)c3ccccc3)cc2)cc1 (stereo not drawn) [Example 458, bis(4,4′-(phenyl-1-methyl-2-aminoethoxyboryl)benzyl)ether] | 31 | – | – | 1.10 | – | – | 500 | TGase activity remaining (% of DMSO control = 100) [1, 10]: 31; x-Fold [2, 11]: 1.10 |
| OB(c1ccccc1)c1cccc(COCc2cccc(B(O)c3ccccc3)c2)c1 [Example 7, bis(3,3′-(phenylhydroxyboryl)benzyl)ether] | 14 | – | – | 1.03 | – | – | 200 | – |
| Cc1ccc(B(OC(c2ccccc2)C(N)c2ccccc2)c2ccc(C)c(Cl)c2)cc1Cl (stereo not drawn) [Example 225] | 109 | 109 | 1.03 | 1.03 | 500 | 500 | – | – |
| CCCCNCCOB(c1ccc(C)c(Cl)c1)c1ccc(C)c(Cl)c1 [Example 210, di(3-chloro-4-methylphenyl)butylaminoethyl borinate] | 27 | 27 | 0.98 | 0.98 | 2000 | 2000 | – | – |
| NC(=O)CC(N)C(=O)OB(c1ccccc1)c1ccc(Oc2ccc(B(OC(=O)C(N)CC(N)=O)c3ccccc3)cc2)cc1 (stereo not drawn) [Example 274, bis(4,4′-(phenylasparagineboryl)phenyl)ether] | 56 | – | – | 0.59 | – | – | 300 | – |
| CCCCC(N)C(=O)OB(c1ccc(C)c(Cl)c1)c1ccc(C)c(Cl)c1 (stereo not drawn) [Example 292, di(3-chloro-4-methylphenyl)(norloysinate-O,N)borane] | 146 | – | – | 1.00 | 1000 | 1000 | – | TGase activity remaining (% of DMSO control = 100) ([1]; TGase inhibitory activity value, Table 1, listed as 5020): 146; x-Fold ([2]; polyglutamine aggregation inhibitory activity, Table 1, listed as 5020): 1.00 |
| NCCOB(c1ccccc1)c1ccc(COc2ccc(B(OCCN)c3ccccc3)cc2)cc1 [Example 371, (4-phenylaminoethoxyborylphenyl)(4′-phenylaminoethoxyborylbenzyl)ether] | 16 | 16 | 0.85 | 0.85 | 2000 | 2000 | – | – |
| bis(3-chloro-4-methylphenyl 2-pyridylmethoxyborylphenyl)ether [Example 117] | 108 | – | – | 0.06 | – | – | 1500 | – |
| NC(=O)CCC(N)C(=O)OB(c1ccccc1)c1cccc(COCc2cccc(B(OC(=O)C(N)CCC(N)=O)c3ccccc3)c2)c1 (stereo not drawn) [Example 471, bis(3,3′-(phenyl-glutamineboryl)benzyl)ether] | 52 | – | – | 1.04 | – | – | 600 | TGase activity remaining (% of DMSO control = 100) [1, 10]: 52; x-Fold [2, 11]: 1.04 |
| NCCSB(c1ccc(C(F)(F)F)cc1)c1ccc(C(F)(F)F)cc1 [Example 285, di(4-trifluoromethylphenyl) 2-aminoethylthioborane] | 51 | 51 | 0.99 | 0.99 | 2000 | 2000 | – | – |
| Cc1ccc(B(OCCN2CCNCC2)c2ccc(C)c(Cl)c2)cc1Cl [Example 72, di(3-chloro-4-methylphenyl)piperazinoethoxyborane] | 41 | 41 | 1.02 | 1.02 | 500 | 500 | – | – |
